Test [1] concerns the target T1, Signal transducer and activator of transcription 6 (Homo sapiens, UniProt P42226).
T1 sequence (P42226 whole entry): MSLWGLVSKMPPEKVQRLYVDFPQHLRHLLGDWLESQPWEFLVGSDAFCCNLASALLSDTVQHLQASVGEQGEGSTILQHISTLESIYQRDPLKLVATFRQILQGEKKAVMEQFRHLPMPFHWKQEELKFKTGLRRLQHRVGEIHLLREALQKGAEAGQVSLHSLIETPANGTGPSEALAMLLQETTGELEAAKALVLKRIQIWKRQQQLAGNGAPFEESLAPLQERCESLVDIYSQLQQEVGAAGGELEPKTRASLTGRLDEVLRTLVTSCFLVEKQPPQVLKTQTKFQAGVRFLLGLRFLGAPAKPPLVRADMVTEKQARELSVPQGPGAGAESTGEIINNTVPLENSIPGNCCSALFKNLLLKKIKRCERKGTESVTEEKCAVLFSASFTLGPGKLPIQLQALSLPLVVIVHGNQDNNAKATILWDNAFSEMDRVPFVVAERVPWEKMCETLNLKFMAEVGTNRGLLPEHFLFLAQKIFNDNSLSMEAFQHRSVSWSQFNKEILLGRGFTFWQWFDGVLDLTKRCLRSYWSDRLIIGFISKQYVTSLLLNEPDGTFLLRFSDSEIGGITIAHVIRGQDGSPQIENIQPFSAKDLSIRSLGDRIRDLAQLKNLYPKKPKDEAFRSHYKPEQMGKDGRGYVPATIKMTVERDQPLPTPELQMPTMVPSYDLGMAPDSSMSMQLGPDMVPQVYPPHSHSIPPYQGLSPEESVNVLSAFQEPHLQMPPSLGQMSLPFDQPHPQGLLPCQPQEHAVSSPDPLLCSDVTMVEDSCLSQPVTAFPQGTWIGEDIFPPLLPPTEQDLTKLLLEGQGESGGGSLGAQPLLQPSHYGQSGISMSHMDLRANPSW
Nature of the test: Inhibition of IL-4 induced STAT6 signaling in human HepG2 cells harboring pRL-EF1alpha, pGL3-TK-7xN4 and TOPO-Stat6 plasmid assessed as luciferase activity incubated for 24 hrs. The class given is cell-based.

Test [2] deals with Mothers against decapentaplegic homolog 2/homolog 3 (Homo sapiens, UniProt P84022+Q15796). Briefly: Inhibition of TGF-beta induced Smad2/3 signaling in human HepG2 cells harboring pRL-EF1alpha, (CAGA)9x-MLP-Luc plasmid assessed as luciferase activity incubated for 24 hrs. In kind it is cell-based.

9 compounds from ChEMBL document CHEMBL5335851, “Total Synthesis, Structure Reassignment, and Biological Evaluation of the Anti-Inflammatory Macrolactone 13-Hydroxy-14-deoxyoxacyclododecindione” (J Nat Prod, 2024) can be followed below.

Usually pIC50 stands for the negative decadic logarithm of the IC50, by convention in mol/L. The IC50 is the concentration at which inhibition is half-maximal.

pIC50: −log10 of the molar value.

Turning to `C/C1=C\CC[C@H](C)[C@@H](C)OC(=O)Cc2c(Cl)c(O)cc(O)c2C1=O`, the pIC50 in test [1] was 7.70. On the same count and under the same terms, the result for `C/C1=C\CCC(C)(O)C(C)OC(=O)Cc2c(Cl)c(O)cc(O)c2C1=O` (centres undefined) reads 7.17.

Consider `C/C1=C\C[C@H](O)[C@H](C)[C@H](C)OC(=O)Cc2c(Cl)c(O)cc(O)c2C1=O`, for which, in test [2], the IC50 was 140 nM. Take `C/C1=C\C[C@@H](O)[C@H](C)[C@@H](C)OC(=O)Cc2c(Cl)c(O)cc(O)c2C1=O`: in test [1], the negative logarithm of the IC50 (pIC50) was 7.25. For `C/C1=C\C[C@@H](O)[C@H](C)[C@H](C)OC(=O)Cc2c(Cl)c(O)cc(O)c2C1=O`, in test [2], the 50% inhibitory concentration (IC50) is 240 nM. In the case of `C/C1=C/C[C@@H](O)[C@H](C)[C@@H](C)OC(=O)Cc2c(Cl)c(O)cc(O)c2C1=O`, in test [2], the half-inhibitory concentration (IC50) was determined as 100 nM. For `C/C1=C/C[C@H](O)[C@H](C)[C@@H](C)OC(=O)Cc2c(Cl)c(O)cc(O)c2C1=O`, in test [2], the IC50 is on record as 68 nM. The same measure, in the same setting: the same measure for `C/C1=C\C[C@H](O)[C@H](C)[C@@H](C)OC(=O)Cc2c(Cl)c(O)cc(O)c2C1=O`: 68 nM. For `C/C1=C\CCC(C)(C)C(C)OC(=O)Cc2c(Cl)c(O)cc(O)c2C1=O` (centres undefined), the pIC50 in test [1] is 7.10.
